Several values for one entry are separate records, joined by “and”; a condition that tells them apart may be missing. Equal values may be shown once.
Assays:
healthy adult subjects = settings: human, in vivo
Protocol: Part 1 of the study is a SAD evaluation in healthy subjects consisting of 6 cohorts: Cohorts 1-6 received powder-in-capsule or matching placebo. There were approximately 8 subjects per cohort. Dose levels were as follows:
No food was given for at least 4 hours after dose administration. Water was allowed ad libitum except for the time 1 hour before and 1 hour after study drug administration. Safety assessments including AEs, safety ECGs, vital signs, and clinical laboratory tests were conducted, and plasma PK samples were collected.
Adverse events (AEs) and serious adverse events (SAEs) were monitored continuously until the completion of the study.

[1] = test system: subjects with narcolepsy type-2 (NT2); assay: Part 5 NT2: Maintenance of Wakefulness Test (MWT) sleep latency; assay type: in vivo, human; settings: for Change from Day −1 in Average Sleep Latency on the MWT, LSM / Change from Day −1 in Average Sleep Latency on the MWT, LSM difference vs placebo: NT2, N = 9; for Average Sleep Latency on the MWT, Change from Day −1, Mean (SD) / Average Sleep Latency on the MWT, Change from Day −1, Median / Average Sleep Latency on the MWT, Dosing Day, Mean (SD) / Average Sleep Latency on the MWT, Dosing Day, Median: NT2, n = 9; for LS mean difference vs placebo in change from baseline, average MWT sleep latency: 2-8 hours post-dose
Protocol: On Day −1, approximately 25 hours prior to study drug administration (on Day 1), baseline assessments for Maintenance of Wakefulness Test (MWT) began and were collected in a series of trials over approximately 10 hours.
At specified time points (Parts 5 and 6), MWT assessments were performed and took up to 40 minutes to complete. During the MWT trials, subjects were seated in a bed or reclining chair in a darkened room with their back and head supported such that their neck is not uncomfortably flexed or extended. Subjects were instructed to sit still and remain awake for as long as possible during each 40-minute trial. If the subject fell asleep during a trial, they were awakened, and the trial was terminated. […] Upon completion of the trial, the subject returned to a normal environment/ambiance and remained awake (and were awakened if they fall asleep) until the next trial.
Once Parts 5 and 6 were completed, the EEG data recorded during the MWT, as well as the technician notes, were transferred to the EEG vendor for further analysis. Technician notes were also maintained for transfer to Sponsor at the end of the study. A precise assessment of sleep latency was conducted by an experienced sleep scorer from the EEG vendor, and spectral analysis was performed on the EEG data recorded during MWT to assess absolute and relative powers in standard frequency bands (i.e., qEEG). All raw data and analysis results were transferred to the Sponsor.
For the changes from baseline in average sleep latency across the first 4 sessions of the MWT, descriptive statistics were provided by dose level. Mixed model with repeated measure (MMRM) for the 4-period crossover design were conducted with the change from baseline as a dependent variable, and the dose level and the period as fixed factors. The differences in the least square means between each Compound A dose level and the placebo (each Compound A dose level—the placebo), and the 2-sided CIs were provided.
Evaluation of Compound A effects on average sleep latency across 4 timepoints of MWT (2-, 4-, 6-, and 8-hours post-dose) has been conducted at each of the crossover periods (Days 1, 3, 5 and 7), testing placebo, and active dose levels of 5, 12, and 25 mg in the patients with NT2 compared to placebo. At pre-dose baseline on Day −1, MWT assessment was taken at similar times (2-, 4-, 6-, and 8-hours) as planned on dosing days assuming a dosing time of approximately 9 AM. Mean (SD) of baseline MWT average across the 4 time points on Day −1 was 14.31 (11.201), with high variability observed for NT2 subjects.

CS(=O)(=O)N[C@H]1CCCN2C(=O)COc3ccccc3C3CCC(CC3)OCC12 (stereo partly drawn) [Compound A, N-[(4S,4aR,7α,10α)-1,2,3,4,4a,5,7,8,9,10,16,17-dodecahydro-17-oxo-7,10-ethanopyrido[1,2-d][1,7,4]benzodioxaazacyclotridecin-4-yl]methanesulfonamide]
TEAE COVID-19 (healthy adult subjects): 3 n | Change from Day −1 in Average Sleep Latency on the MWT, LSM ([1]; 5 mg): 11.68 min | Change from Day −1 in Average Sleep Latency on the MWT, LSM difference vs placebo ([1]; 5 mg): 11.60 min | Average Sleep Latency on the MWT, Change from Day −1, Mean (SD) ([1]; 5 mg): 11.65 (14.736) minutes | Average Sleep Latency on the MWT, Change from Day −1, Median ([1]; 5 mg): 8.50 min | Average Sleep Latency on the MWT, Dosing Day, Mean (SD) ([1]; 5 mg): 25.95 (12.409) minutes | Average Sleep Latency on the MWT, Dosing Day, Median ([1]; 5 mg): 26.63 min | Change from Day −1 in Average Sleep Latency on the MWT, LSM ([1]; 12 mg): 18.63 min | Change from Day −1 in Average Sleep Latency on the MWT, LSM difference vs placebo ([1]; 12 mg): 18.55 min | Average Sleep Latency on the MWT, Change from Day −1, Mean (SD) ([1]; 12 mg): 18.63 (10.892) minutes | Average Sleep Latency on the MWT, Change from Day −1, Median ([1]; 12 mg): 19.50 min | Average Sleep Latency on the MWT, Dosing Day, Mean (SD) ([1]; 12 mg): 32.93 (9.836) minutes | Average Sleep Latency on the MWT, Dosing Day, Median ([1]; 12 mg): 40.00 min | Change from Day −1 in Average Sleep Latency on the MWT, LSM ([1]; 25 mg): 21.04 min | Change from Day −1 in Average Sleep Latency on the MWT, LSM difference vs placebo ([1]; 25 mg): 20.96 min | Average Sleep Latency on the MWT, Change from Day −1, Mean (SD) ([1]; 25 mg): 21.14 (12.126) minutes | Average Sleep Latency on the MWT, Change from Day −1, Median ([1]; 25 mg): 17.25 min | Average Sleep Latency on the MWT, Dosing Day, Mean (SD) ([1]; 25 mg): 35.44 (7.720) minutes | Average Sleep Latency on the MWT, Dosing Day, Median ([1]; 25 mg): 40.00 min | LS mean difference vs placebo in change from baseline, average MWT sleep latency ([1]; NT2, 5 mg): 11.60 min and 11.6 min and 12 min | observed mean MWT score over 8-hour period post-dose ([1]; NT2, 12 mg): ≥ 30 min | LS mean difference vs placebo in change from baseline, average MWT sleep latency ([1]; NT2, 12 mg): 18.55 min and 18.6 min and 19 min | observed mean MWT score over 8-hour period post-dose ([1]; NT2, 25 mg): ≥ 30 min | LS mean difference vs placebo in change from baseline, average MWT sleep latency ([1]; NT2, 25 mg): 20.96 min and 21.0 min and 21 min
